The values that follow are results of earlier work, collected in US20030056896A1, “Effective therapy for epilepsies” (priority 1995, published 2003).

Like-named read-outs stand apart in the source and are kept apart here.

Consider `NC(=O)N1c2ccccc2C=Cc2ccccc21` [carbamazepine], for which, where the note is “in water”, the solubility result was “practically insoluble in water”.
On to `O=C1NC(=O)C(c2ccccc2)(c2ccccc2)N1` [phenytoin], for which the solubility entry (gastrointestinal pH range of 1 to 8) is given as “practically insoluble”.
